Experiments:
[1] = tested on: adults with major depressive disorder (MDD) who are at imminent risk of suicide; assay: MOAA/S sedation, Phase 2 Part 1
[2] = tested on: adults with major depressive disorder (MDD) who are at imminent risk of suicide; assay: S-STS CMCM Risk of Suicide at Within the Next 7 Days; format: in vivo, human; conditions: 90 mg IN+SOC
Source text: The S-STS CMCM (version 01/01/19) is a clinician-rated outcome measure which assesses SI/B on a standard 22-item scale, as well as multiple patient and clinician-rated items. The first 16 items are rated on a Likert-type scale ranging from “not at all” (0 units) to “extremely” (4 units), where select scoring (i.e., 4 specific items are scored based on the highest score on 2 of those items) yields a total score ranging from 0 units to 52 units. The final 6 items are used only when the patient misses a visit and is unable to complete the scale; if that missed visit is due to attempted or completed suicide, the possible maximum score is 100. The CMCM also yields 5 different single-item global assessments: 1) subject-rated likelihood of a suicide attempt; 2) subject-rated treatment needed; 3) clinician global severity of suicidal impulses, thoughts, and behaviors; 4) clinician judgment of suicide risk at this time and level of management needed for suicidality; and 5) clinician judgment of subject's likelihood of making a suicide attempt or of dying by suicide in the next 7 days.
(§1) The secondary endpoints are the change from baseline at 24 hours, as well as at Day 16, in the following: • (1) S-STS total score • (2) MADRS Total at Day 16 (only) • (3) Clinical Global Impression (CGI) of Severity for SI/B (CGIS-SI/B) and Change in SI/B (CGIC-SI/B) • (4) Patient Global Impression (PGI) of Severity for SI/B (PGIS-SI/B) and Change in SI/B (PGIC-SI/B • (5) S-STS Clinician-Rated Global Severity of Suicidal Impulses, Thoughts, and Behaviors • (6) S-STS Clinician judgment of subject's risk of a suicide attempt or death by suicide at this time • (7) S-STS Clinician judgment of subject's likelihood (risk) of making a suicide attempt or of dying by suicide in the next 7 days • (8) S-STS Subject-rated global severity of suicidal impulses, thoughts, and behavior • (9) S-STS Subject-rated treatment needed score • (10) MADRS item 10 response rate (response ≤3 units) • (11) MADRS Total response (total score ≥50% reduction from baseline) • (12) MADRS Total remission (total score ≤12 units)

[3] = tested on: adults with major depressive disorder (MDD) who are at imminent risk of suicide; assay: MADRS item 10 (suicidal thoughts), Phase 2 Part 1; format: in vivo, human; conditions: for MADRS item 10 (suicidality) score: 24 hours post-administration, baseline 5 units; for MADRS Item 10 mean score: baseline 5.2; for MADRS Suicide Item-10 response rate: summary through Day 29/30
Source text: The Montgomery-Åsberg Depression Rating Scale (MADRS) is a diagnostic questionnaire that can be used to measure the severity of a depressive episode in a subject. In some embodiments, the MADRS can be used to measure suicidal ideation. For example, the MADRS includes 10 items directed to the following: 1) apparent sadness (e.g., representing despondency, gloom and despair that is more than just ordinary transient low spirits that is reflected in speech, facial expression, and posture); 2) reported sadness (e.g., representing reports of depressed mood, regardless of whether it is reflected in appearance or not and can include low spirits, despondency or the feeling of being beyond help and without hope); 3) inner tension (e.g., representing feelings of ill-defined discomfort, edginess, inner turmoil, mental tension mounting to either panic, dread or anguish); 4) reduced sleep (e.g., representing the experience of reduced duration or depth of sleep compared to the subject's own normal pattern when well); 5) reduced appetite (e.g., representing the feeling of a loss of appetite compared with when-well); 6) concentration difficulties (e.g., representing difficulties in collecting one's thoughts mounting to an incapacitating lack of concentration); 7) lassitude (e.g., representing difficulty in getting started or slowness in initiating and performing everyday activities); 8) inability to feel (e.g., representing the subjective experience of reduced interest in the surroundings, or activities that normally give pleasure, and the ability to react with adequate emotion to circumstances or people is reduced); 9) pessimistic thoughts (e.g., representing thoughts of guilt, inferiority, self-reproach, sinfulness, remorse and ruin); and 10) suicidal thoughts (e.g., representing the feeling that life is not worth living, that a natural death would be welcome, suicidal thoughts, and preparations for suicide). Each item is rated from 0 units to 6 units, with 0 reflecting that the subject is not at all as described by the item and 6 reflecting that the subject is extremely like what is described by the item. […] As another example, for suicidal thoughts, a score of 0 units can indicate that the subject enjoys life or takes it as it comes; a score of 2 units can indicate that the subject is weary of life and may have fleeting suicidal thoughts; a score of 4 units can indicate that the subject feels he or she would probably be better off dead (e.g., suicidal thoughts are common, and suicide is considered as a possible solution, but without specific plans or intention); and a score of 6 units can indicate that the subject has explicit plans for suicide when there is an opportunity (e.g., the subject has made active preparations for suicide). Thus, the total score, after summation of each score for each item, is on a scale of 0 units to 60 units.
In some embodiments, item 10, e.g., suicidal thoughts, of the MADRS can be used to measure suicidal ideation.
as §1, with “≤12 units) […]” for “≤12 units)”

SMILES: CNC1(c2ccccc2Cl)CCCCC1=O (racemic) [intranasal racemic ketamine, 1:1 mixture of the two enantiomers of ketamine: (R)-2-(2-chlorophenyl)-2-(methylamino)cyclohexanone and (S)-2-(2-chlorophenyl)-2-(methylamino)cyclohexanone]
- MOAA/S score ([1]; 90 mg IN+SOC, Subject 1, 15 minutes post-administration, pre-dose 5 units): 4 units
- MOAA/S score ([1]; 90 mg IN+SOC, Subject 1, 30 minutes): 5 units
- MOAA/S score ([1]; 90 mg IN+SOC, Subject 2, throughout the trial): 5 units
- sedation ([1]; 90 mg IN+SOC, Subjects 1 and 2, in contrast to intranasal (S)-ketamine): little to no sedation
- subjects with MOAA/S score of 5 units at all time-points ([1]; Day 1): 5 of 7 subjects
- MOAA/S score (no one had a score below) ([1]; Day 1, 7 subjects): ≥ 4 units
- S-STS CMCM Risk of Suicide at Within the Next 7 Days score ([2]; Subject 1, 24 hours post-administration, from 5 units, range 1-10): 2 units
- S-STS CMCM Risk of Suicide at Within the Next 7 Days score ([2]; Subject 2, 24 hours post-administration, baseline 7 units): 1 unit
- S-STS CMCM Risk of Suicide at Within the Next 7 Days score ([2]; the scores (Subjects 1 and 2), Day 4): 1 unit
- S-STS CMCM Risk of Suicide at Within the Next 7 Days score ([2]; the scores (Subjects 1 and 2), Day 8): 0 units
- sustained response on MADRS Item 10, time after the final administration ([3]; 90 mg IN+SOC): 15 days
- MADRS item 10 (suicidality) score ([3]; 90 mg IN+SOC, Subject 1, range 0-6): 0 units
- MADRS item 10 (suicidality) score ([3]; 90 mg IN+SOC, second subject (not given)): 0 units
- subjects who experienced MADRS Item 10 response ([3]; 24 hours post-dose): 94.1%
- MADRS Item 10 mean score ([3]; Day 1): 0.8
- subjects who experienced MADRS Item 10 response ([3]; Day 16): 100%
- MADRS Item 10 mean score ([3]; Day 29): 0.0
- subjects who experienced MADRS Item 10 response ([3]; study end (Day 29/30)): 100%
- MADRS Suicide Item-10 response rate ([3]; Day 1): 94%
- MADRS Suicide Item-10 response rate ([3]; Day 16): 100%

Reference: patent US20240261236A1, “METHODS OF USING NMDA RECEPTOR ANTAGONISTS” (Seelos Therapeutics, Inc., priority 2021, published 2024)
